The assay relates to PC3 cells. Nature of the assay: NAMPT Cell Proliferation Assay. To be noted: Homo sapiens, PC-3, 120 h, 5 days incubation, cell viability by Cell Titer Glo. Format: cell-based. Summed up:
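Seeded at 500 cells/well in RPMI with 10% heat-inactivated FBS and left to attach overnight at 37° C, 5% CO2. Compounds were added as 10-fold dilutions […] for 5 days, then viability was read by CellTiter-Glo. IC50s came from sigmoidal fits of percent inhibition.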
Regarding `O=C(Nc1ccc(OC2CCN(C(=O)C(F)(F)c3ccccc3)CC2)cc1)C1CN(c2cccnn2)C1` [Example 215, N-[4-({1-[difluoro(phenyl)acetyl]piperidin-4-yl}oxy)phenyl]-1-(pyridazin-3-yl)azetidine-3-carboxamide], the IC50 worked out at 6.95 nM.

`O=C(Nc1ccc(C2CCN(C(=O)Cc3ccc(C(F)(F)F)cc3)CC2)cc1)C1CN(c2ccnnc2)C1` [Example 563, 1-(pyridazin-4-yl)-N-[4-(1-{[4-(trifluoromethyl)phenyl]acetyl}piperidin-4-yl)phenyl]azetidine-3-carboxamide] returned a 50% inhibitory concentration (IC50) of 24.2 nM. For the molecule `CC1CC1C(=O)N1CCC(c2ccc(C(=O)N[C@H]3CCN(c4cccnn4)C3)s2)CC1` (stereo partly drawn) [Example 762, 5-{1-[(2-methylcyclopropyl)carbonyl]piperidin-4-yl}-N-[(3S)-1-(pyridazin-3-yl)pyrrolidin-3-yl]thiophene-2-carboxamide], 709 nM corresponded to half-maximal inhibition (IC50).

In turn, `CC(=O)N1CCC(c2ccc(NC(=O)C3CN(c4cccnn4)C3)cc2)CC1` [Example 316, N-[4-(1-acetylpiperidin-4-yl)phenyl]-1-(pyridazin-3-yl)azetidine-3-carboxamide] yielded a half-inhibitory concentration (IC50) of 3.12 nM. In the case of `CCC(C)CC(=O)N1CCC(c2ccc(NC(=O)C3CN(c4cccnn4)C3)cc2)CC1` (stereo not drawn) [Example 323, N-{4-[1-(3-methylpentanoyl)piperidin-4-yl]phenyl}-1-(pyridazin-3-yl)azetidine-3-carboxamide] it was 2.81 nM; in that of `O=C(Nc1ccc(C2CCN(C(=O)c3ccoc3)CC2)cc1)C1CN(c2cccnn2)C1` [Example 375, N-{4-[1-(furan-3-ylcarbonyl)piperidin-4-yl]phenyl}-1-(pyridazin-3-yl)azetidine-3-carboxamide], 0.87 nM; in that of `O=C(Nc1ccc(C2CCN(C(=O)CC3CCCC3)CC2)cc1)[C@H]1CCN(c2cccnn2)C1` [Example 644, (3S)-N-{4-[1-(cyclopentylacetyl)piperidin-4-yl]phenyl}-1-(pyridazin-3-yl)pyrrolidine-3-carboxamide], 8.23 nM.

As for `CC1(C(=O)N2C3CCC2CC(c2ccc(NC(=O)C4CN(c5cccnn5)C4)cc2)C3)CC1` (stereo not drawn) [Example 845, N-(4-{8-[(1-methylcyclopropyl)carbonyl]-8-azabicyclo[3.2.1]oct-3-yl}phenyl)-1-(pyridazin-3-yl)azetidine-3-carboxamide], it took 2.09 nM to reach half-maximal inhibition (IC50). For the molecule `O=C(Nc1ccc(OC2CN(C(=O)C3CCC3)C2)cc1)C1CN(c2ccnnc2)C1` [Example 261, N-(4-{[1-(cyclobutylcarbonyl)azetidin-3-yl]oxy}phenyl)-1-(pyridazin-4-yl)azetidine-3-carboxamide], the IC50 was determined as 71.5 nM. Against the preceding molecule, the IC50 is about 34-fold higher. In the case of `CC(C)Cn1cc(-c2ccc(C(=O)N[C@H]3CCN(c4cccnc4)C3)s2)cn1` [Example 608, 5-[1-(2-methylpropyl)-1H-pyrazol-4-yl]-N-[(3S)-1-(pyridin-3-yl)pyrrolidin-3-yl]thiophene-2-carboxamide] it was 712 nM; in that of `O=C(Nc1ccc(C2CCN(C(=O)Cc3cccc(F)c3F)CC2)cc1)C1CN(c2cccnn2)C1` [Example 419, N-(4-{1-[(2,3-difluorophenyl)acetyl]piperidin-4-yl}phenyl)-1-(pyridazin-3-yl)azetidine-3-carboxamide], 2.17 nM. As for `Cc1ncccc1N1CC(C(=O)Nc2ccc(C3CCN(C(=O)CC(C)(C)C)CC3)cc2)C1` [Example 192, N-{4-[1-(3,3-dimethylbutanoyl)piperidin-4-yl]phenyl}-1-(2-methylpyridin-3-yl)azetidine-3-carboxamide], the figure is 69.3 nM. The molecule `O=C(Nc1ccc(OC2CCN(C(=O)CN3CCOCC3)CC2)cc1)C1CN(c2cccnc2)C1` [Example 60, N-(4-{[1-(morpholin-4-ylacetyl)piperidin-4-yl]oxy}phenyl)-1-(pyridin-3-yl)azetidine-3-carboxamide] yielded an IC50 of 5.07 nM. `O=C(Nc1ccc(OC2CN(C(=O)C(F)(F)c3ccccc3)C2)cc1)C1CN(c2ccnnc2)C1` [Example 201, N-[4-({1-[difluoro(phenyl)acetyl]azetidin-3-yl}oxy)phenyl]-1-(pyridazin-4-yl)azetidine-3-carboxamide]: the IC50 was determined as 60.9 nM. Take `C#CCCC(=O)N1CCC(c2ccc(NC(=O)C3CN(c4cccnn4)C3)cc2)CC1` [Example 338, N-{4-[1-(pent-4-ynoyl)piperidin-4-yl]phenyl}-1-(pyridazin-3-yl)azetidine-3-carboxamide]: it took 1.11 nM to reach half-maximal inhibition (IC50). This IC50 lies about 55-fold lower than the previous one.

`CC[C@H](C)C(=O)N1CCC(Oc2ccc(C(=O)NC3CN(c4cccnc4)C3)cc2)CC1` [Example 23, 4-({1-[(2S)-2-methylbutanoyl]piperidin-4-yl}oxy)-N-[1-(pyridin-3-yl)azetidin-3-yl]benzamide] gave an IC50 of 72.5 nM. As for `O=C(Nc1ccc(C2CCN(C(=O)C3CCCC3)CC2)cc1)[C@H]1CCN(c2cccnn2)C1` [Example 660, (3S)-N-{4-[1-(cyclopentylcarbonyl)piperidin-4-yl]phenyl}-1-(pyridazin-3-yl)pyrrolidine-3-carboxamide], the figure is 5.23 nM.

`O=C(Nc1ccc(C2CCN(C(=O)CC(F)(F)F)CC2)cc1)[C@H]1CCN(c2cccnn2)C1` [Example 734, (3S)-1-(pyridazin-3-yl)-N-{4-[1-(3,3,3-trifluoropropanoyl)piperidin-4-yl]phenyl}pyrrolidine-3-carboxamide] came in with an IC50 of 8.33 nM. As for `Cc1ncccc1N1CC(C(=O)Nc2ccc(C3CCN(C(=O)CC(C)C)CC3)cc2)C1` [Example 197, N-{4-[1-(3-methylbutanoyl)piperidin-4-yl]phenyl}-1-(2-methylpyridin-3-yl)azetidine-3-carboxamide], the figure is 103 nM. Molecule `O=C(Nc1ccc(OC2CCN(C(=O)C3CCOC3)CC2)cc1)C1CN(c2ccnnc2)C1` (stereo not drawn) [Example 298, 1-(pyridazin-4-yl)-N-(4-{[1-(tetrahydrofuran-3-ylcarbonyl)piperidin-4-yl]oxy}phenyl)azetidine-3-carboxamide] showed an IC50 of 97.9 nM. `CO[C@@H](C(=O)N1CCC(c2ccc(NC(=O)[C@H]3CCN(c4cccnn4)C3)cc2)CC1)c1ccccc1` [Example 634, (3S)-N-(4-{1-[(2R)-2-methoxy-2-phenylacetyl]piperidin-4-yl}phenyl)-1-(pyridazin-3-yl)pyrrolidine-3-carboxamide] had an IC50 of 9.22 nM. This IC50 is about 11-fold lower than that of the molecule before. As for `Cc1cc(C)cc(CC(=O)N2CCC(c3ccc(NC(=O)C4CN(c5cccnn5)C4)cc3)CC2)c1` [Example 372, N-(4-{1-[(3,5-dimethylphenyl)acetyl]piperidin-4-yl}phenyl)-1-(pyridazin-3-yl)azetidine-3-carboxamide], the figure is 7.06 nM; as for `O=C(Nc1ccc(OC2CCN(C(=O)c3ccc(F)c(F)c3)CC2)cc1)C1CN(c2cccnn2)C1` [Example 234, N-(4-{[1-(3,4-difluorobenzoyl)piperidin-4-yl]oxy}phenyl)-1-(pyridazin-3-yl)azetidine-3-carboxamide], 10.5 nM; as for `O=C(Nc1ccc(OC2CCN(C(=O)Cc3cc(F)cc(F)c3)CC2)cc1)C1CN(c2ccnnc2)C1` [Example 291, N-[4-({1-[(3,5-difluorophenyl)acetyl]piperidin-4-yl}oxy)phenyl]-1-(pyridazin-4-yl)azetidine-3-carboxamide], 73.6 nM. On to `O=C(Nc1ccc(C2CCN(C(=O)c3cccc(OC(F)(F)F)c3)CC2)cc1)[C@H]1CCN(c2cccnn2)C1` [Example 701, (3S)-1-(pyridazin-3-yl)-N-(4-{1-[3-(trifluoromethoxy)benzoyl]piperidin-4-yl}phenyl)pyrrolidine-3-carboxamide], for which half-maximal inhibition (IC50) was put at 75.2 nM. In the case of `O=C(Nc1ccc(S(=O)(=O)C2CCN(C(=O)c3cc(F)ccc3F)CC2)cc1)C1CN(c2cccnn2)C1` [Example 576, N-(4-{[1-(2,5-difluorobenzoyl)piperidin-4-yl]sulfonyl}phenyl)-1-(pyridazin-3-yl)azetidine-3-carboxamide] it was 84.8 nM; in that of `O=C(Nc1ccc(C2CCN(C(=O)[C@@H]3CCCO3)CC2)cc1)C1CN(c2cccnc2)C1` [Example 10, 1-(pyridin-3-yl)-N-(4-{1-[(2S)-tetrahydrofuran-2-ylcarbonyl]piperidin-4-yl}phenyl)azetidine-3-carboxamide], 1.84 nM; in that of `O=C(Nc1ccc(OC2CCN(C(=O)Cc3ccc(F)cc3F)CC2)cc1)C1CN(c2ccnnc2)C1` [Example 277, N-[4-({1-[(2,4-difluorophenyl)acetyl]piperidin-4-yl}oxy)phenyl]-1-(pyridazin-4-yl)azetidine-3-carboxamide], 73.1 nM.

In turn, `COc1ccncc1N1CC(C(=O)Nc2ccc(C3CCN(C(=O)C(C)(C)O)CC3)cc2)C1` [Example 96, N-{4-[1-(2-hydroxy-2-methylpropanoyl)piperidin-4-yl]phenyl}-1-(4-methoxypyridin-3-yl)azetidine-3-carboxamide] gave an IC50 of 7610 nM. `COCC(=O)N1CC[C@@H](Oc2ccc(NC(=O)C3CN(c4cccnn4)C3)cc2)C1` [Example 510, N-(4-{[(3R)-1-(methoxyacetyl)pyrrolidin-3-yl]oxy}phenyl)-1-(pyridazin-3-yl)azetidine-3-carboxamide] came in with an IC50 of 66.4 nM.

`CC(C)CCC(=O)N1CCC(Oc2ccc(NC(=O)C3CN(c4cccnc4)C3)cc2)CC1` [Example 37, N-(4-{[1-(4-methylpentanoyl)piperidin-4-yl]oxy}phenyl)-1-(pyridin-3-yl)azetidine-3-carboxamide] yielded an IC50 of 6.48 nM. For `COCC(=O)N1CCC(Oc2ccc(NC(=O)C3CN(c4ccnnc4)C3)cc2)CC1` [Example 267, N-(4-{[1-(methoxyacetyl)piperidin-4-yl]oxy}phenyl)-1-(pyridazin-4-yl)azetidine-3-carboxamide], half-maximal inhibition (IC50) was put at 622 nM. In the case of `CC[C@H](C)C(=O)N1CC(Oc2ccc(NC(=O)C3CN(c4ccnnc4)C3)cc2)C1` [Example 265, N-[4-({1-[(2S)-2-methylbutanoyl]azetidin-3-yl}oxy)phenyl]-1-(pyridazin-4-yl)azetidine-3-carboxamide] it was 70.1 nM.

Broadly, the IC50 is the concentration that inhibits the measured activity by half. A lower IC50 goes with greater potency.
